A short description of data set [1]: Single-dose pharmacokinetic study PO/IP in wild type mice. It counts as in vivo, C57BL/6 mice. Particulars: for AUC / Cmax / Tmax / half-life: C57BL/6, mouse plasma. How it is done: Plasma from the 19 hamsters dosed with ARI-001 in the above described 18-day study was analyzed for concentrations of ARI-001. Concentrations were determined for these samples, which were collected 24 hours after the final dose was administered. Briefly, plasma drug concentrations for the non-GLP pharmacokinetic experiments were determined by LC-MS using an Applied Biosystems 4000Qtrap spectrometer with electrospray ionization. Samples were prepared for analysis by precipitation of plasma proteins with cold methanol. HPLC of the samples was done with an Agilent Eclipse C18 column and a methanol/water gradient containing 0.1% formic acid and 5 mM ammonium acetate. ARI-001 was detected using multiple reaction monitoring (MRM) in the positive ion mode. For quantitation, a standard curve was measured by addition of known amounts of ARI-001 to plasma from untreated animals and preparing in a manner identical to the samples from treated animals. All plasma samples were spiked with 10 ng/mL of isotope-enriched ARI-001 which served as an internal standard for the LC-MS measurements. All compound concentrations are reported in μM. For correlation analysis, plasma concentrations of ARI-001 in a given animal were paired with that same animal's lipid parameter. […] These correlations are graphed in FIG. 6 and FIG. 7. Pearson r values were determined using all data points, as was the two-tailed P-value for the data set.
Wild type C57BL/6 mice were dosed with a single administration of ARI-001 in solution either via oral gavage (PO) or via intraperitoneal injection (IP). Blood samples were then collected at various time points over a 24-hour period; plasma was then analyzed for concentrations of ARI-001 as described earlier. ARI-001 was administered at either a dose of 2240 mg/kg as a single bolus via oral gavage, or a dose of 448 mg/kg as a single bolus via intraperitoneal injection.

Data set [2] in a line: ARI-001 plasma, liver and adipose concentrations correlated with lipid parameters. Particulars: 18-day study; p<0.01 for each pair. It counts as in vivo, hamster. As for the experimental part:
Plasma from the 19 hamsters dosed with ARI-001 in the above described 18-day study was analyzed for concentrations of ARI-001. Concentrations were determined for these samples, which were collected 24 hours after the final dose was administered. Briefly, plasma drug concentrations for the non-GLP pharmacokinetic experiments were determined by LC-MS using an Applied Biosystems 4000Qtrap spectrometer with electrospray ionization. Samples were prepared for analysis by precipitation of plasma proteins with cold methanol. HPLC of the samples was done with an Agilent Eclipse C18 column and a methanol/water gradient containing 0.1% formic acid and 5 mM ammonium acetate. ARI-001 was detected using multiple reaction monitoring (MRM) in the positive ion mode. For quantitation, a standard curve was measured by addition of known amounts of ARI-001 to plasma from untreated animals and preparing in a manner identical to the samples from treated animals. All plasma samples were spiked with 10 ng/mL of isotope-enriched ARI-001 which served as an internal standard for the LC-MS measurements. […] Pearson r values were determined using all data points, as was the two-tailed P-value for the data set. […]
FIG. 8 graphs the correlation between concentrations of ARI-001 in plasma versus liver (left), and in plasma versus adipose (right). […] Pearson r was determined using all data points illustrated. […]

For the next data set, the system named is adiponectin mRNA. Briefly: qPCR of adipose mRNA in HF/HS hamsters. It counts as in vivo, hamster. Particulars: ARI-001 2240 mg/kg oral 18 days; relative to mean of vehicle. The source says:
Hamster livers and adipose were preared in manners similar to that described for ARI-001 concentration determination. Briefly, to prepare for analysis, a sample of liver was excised from the frozen mass, weighed, and homogenized with a tissue grinder followed by sonication in buffer. The solid materials were then removed by centrifugation. The resulting lysate was used in qPCR analysis to quantify the specific mRNA measured (vide infra) using primers designed for the specific sequences of interest. All mRNA quantities were normalized to vehicle-treated animal, and mRNA levels were expressed as a fold increase or decrease relative to vehicle-treated. […] During grinding, liquid nitrogen was added to ensure the sample of adipose remained solid. The ground sample was transferred to a tared tube to weigh total sample. This ground sample was treated with buffer and prepared for qPCR to quantify specific mRNA quantities.
A general note: Quantitative PCR measures a nucleic acid by following its amplification.

Data set [3] concerns high fat+fructose (HF/HS) diet hamsters. As to the kind of experiment: FPLC cholesterol subpopulation traces of pooled hamster plasma. Particulars: ARI-001 2240 mg/kg 18 days, vs vehicle. It counts as in vivo, male Golden Syrian hamsters. As for the experimental part:
Fast protein liquid chromatography (FPLC) was used to separate the different cholesterol subpopulations from samples of hamster plasma. Briefly, plasma from each animal within a given cohort was pooled together and applied to an AKTA liquid handling system with a Superose 6 10/300 GL column (product #14-5172-01, GE Life Sciences). 250 μL of sample was applied to the injection system, diluted with 5 mL of buffer (100 mM Na2HPO4, 100 mM NaCl, pH 7.5), loaded onto the column, and eluted with 23.5 mL of buffer at a flow rate of 1.0 mL/min, into fractions of size 0.24 mL. Each fraction was individually measured for cholesterol concentration using the total cholesterol kit from Wako as described above with the following modification: sample volume was increased to 30 μL and the reagent volume was decreased to 60 μL.
FPLC traces produce continuous curves with three distinct peaks, representing each of the cholesterol subpopultions: VLDL, LDL, and HDL. Because the column used in this experiment is a size-exclusion column, the largest particles appear first, while the smallest appear last. […]
The measured HDL values were borderline significant (p=0.06) between the 2240 mg/kg ARI-001 group and vehicle. There was a considerable increase in significance when considering the calculated HDL/TC values. […]

Where [4] appears, read: PO, 2240 mg/kg single bolus oral gavage.

On to `O=C(O)c1ccc(CCN2CCOCC2)nc1` [ARI-001], for which, in data set [1] (IP, 448 mg/kg single bolus), the area under the curve (AUC) stood at 439 µM·h, the Cmax is 450 µM, the Tmax stood at 15 min and the half-life is 30 min. Besides, in data set [1] (setting [4]), the AUC amounted to 1100 µM·h, the Cmax is 289 µM, the Tmax was 30 min and the half-life is 90 min. In data set [1] (single dose PO 2240 mg/kg or IP 448 mg/kg), the “remaining plasma concentration at the 24 hour timepoint” value is “undetectable”. For the same compound, in data set [2], the “correlations of plasma versus liver and plasma versus adipose concentrations” value is reported as “highly statistically significant”. Also, the “Adipose Adiponectin mRNA per mg tissue” value in the data set on adiponectin mRNA is listed as 2.00 ± 0.23 fold-change. For the same compound, in data set [3], the “FPLC HDL curve” value is given as “notably larger”; the “FPLC VLDL and LDL peaks” value was “considerably decreased compared to vehicle”.

For orientation: AUC means concentration integrated over time. A lower AUC goes with less exposure. By Cmax is commonly meant the peak of the concentration-time curve. By Tmax is commonly meant the time at which the peak concentration occurs. In general, half-life refers to the time needed for the level to fall by half in the phase considered. Low readings indicate rapid decline, high ones slow decline.

The values above are taken from US8937063B2 (Trustees of Tufts College, priority 2010, dated 2015).
